From patent publication US8163909B2, “Substituted hydroxyethyl amine compounds as beta-secretase modulators and methods of use” (Amgen Inc., priority 2007, dated 2012) come the findings set out here.

Data set [1] addresses Beta Secretase enzyme (BACE) (Homo sapiens, UniProt P56817). Nature of the data set: In vitro enzymatic BACE FRET (fluorescence resonance energy transfer) assay.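 Note: fluorescence read after 1 h with 50 nM quenched peptide substrate spanning the BACE cleavage site, in pH 4.2 acetate buffer containing 10% DMSO and nonionic detergent.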 Format: biochemical. The following applies: BACE enzyme assay; read-out: BACE1 FRET assay.
A short description of data set [2]: Microsomal stability assay, rat liver microsomes.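 Note: rat liver microsomes (0.25 mg/mL) with about 1 µM compound plus 1 mM NADPH, pH 7.4, 37 °C for 30 min, parent left measured by LC-MS/MS against 0 min.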 To be noted: rat liver microsomal data. Background: Liver microsomes are vesicles of endoplasmic reticulum, rich in cytochrome P450 enzymes.
The nature of data set [3]: Microsomal stability assay, human liver microsomes.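 Note: pooled human liver microsomes at 0.25 mg/mL with 1 µM compound and NADPH at 37 °C, pH 7.4, for 30 min, unchanged parent quantified by LC-MS/MS against the 0 min sample.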 To be noted: human liver microsomal data.
The test system of data set [4] is Aβ40 in conditioned medium of cells stably expressing Amyloid Precursor Protein (APP). Nature of the data set: In vitro BACE cell-based assay (Aβ40 in conditioned medium, sandwich ELISA).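 Note: compounds added as a dilution series, secreted peptide quantified by europium time-resolved fluorescence readout, potency fitted from percent of control versus compound concentration.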 The following applies: Homo sapiens, HEK293, HEK cells; read-out: HEK cell assay.
The next data set addresses CYP2D6 (Homo sapiens, UniProt P10635). As to the kind of experiment: CYP2D6 inhibition assay (bufuralol, pooled human liver microsomes). To be noted: 2D6 IC50 (uM), CYP enzyme inhibition.
For a further data set, the target named is CYP3A4 (CYP3A) (Homo sapiens, UniProt P08684). Nature of the data set: in vitro. To be noted: microsomes, pH 7.4.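 Note: inhibition of CYP3A-mediated 1-hydroxymidazolam formation after 10 min incubation with NADPH, quantified by HPLC MS relative to metabolite produced without test compound.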
For another data set, the system named is Abeta peptide. As to the kind of experiment: In vivo inhibition of beta-secretase (reduction of Abeta peptide in brain and cerebrospinal fluid).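 Note: abeta peptide quantified by sandwich ELISA with electrochemiluminescence readout in rat brain supernatant or CSF, relative to vehicle-dosed control animals.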 Further details: species or system rat. To be noted: Rattus norvegicus, po, 4 h, orally administered at 30 mg/kg dose, measured after 4 hours.
Setting [5] is: rat cerebrospinal fluid, read-out: percent reduction of abeta peptide in the cerebrospinal fluid of the rat.

Read-outs that look alike come from different tables or passages of the source.

Chain of CYP3A4 (CYP3A) (P08684 2-503): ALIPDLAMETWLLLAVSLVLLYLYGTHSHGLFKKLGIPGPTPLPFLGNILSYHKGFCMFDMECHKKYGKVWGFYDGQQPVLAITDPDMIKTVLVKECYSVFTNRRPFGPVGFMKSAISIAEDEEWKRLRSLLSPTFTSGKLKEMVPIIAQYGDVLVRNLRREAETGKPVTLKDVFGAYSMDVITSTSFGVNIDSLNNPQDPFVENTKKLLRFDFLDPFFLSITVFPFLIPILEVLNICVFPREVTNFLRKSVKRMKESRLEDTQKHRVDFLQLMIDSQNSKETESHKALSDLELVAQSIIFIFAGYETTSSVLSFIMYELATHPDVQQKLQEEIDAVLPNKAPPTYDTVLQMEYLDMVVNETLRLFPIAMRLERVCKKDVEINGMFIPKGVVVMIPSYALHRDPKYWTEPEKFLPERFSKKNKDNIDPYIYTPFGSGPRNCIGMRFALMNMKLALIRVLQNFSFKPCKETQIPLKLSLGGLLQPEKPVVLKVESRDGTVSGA
Chain of CYP2D6 (P10635 whole entry): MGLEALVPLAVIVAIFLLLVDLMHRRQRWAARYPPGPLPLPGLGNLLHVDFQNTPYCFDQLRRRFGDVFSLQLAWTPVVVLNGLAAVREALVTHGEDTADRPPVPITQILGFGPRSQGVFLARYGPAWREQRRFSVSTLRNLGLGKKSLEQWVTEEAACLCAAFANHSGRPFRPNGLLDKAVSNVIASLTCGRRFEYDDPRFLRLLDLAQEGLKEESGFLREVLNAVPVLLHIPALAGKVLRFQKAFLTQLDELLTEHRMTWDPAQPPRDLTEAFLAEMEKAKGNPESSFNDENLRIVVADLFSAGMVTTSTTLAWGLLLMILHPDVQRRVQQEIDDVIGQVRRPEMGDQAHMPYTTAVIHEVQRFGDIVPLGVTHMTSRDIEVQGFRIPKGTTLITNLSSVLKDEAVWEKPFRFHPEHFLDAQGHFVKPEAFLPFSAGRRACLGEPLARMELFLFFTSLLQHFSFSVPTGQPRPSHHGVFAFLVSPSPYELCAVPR
Chain of Beta Secretase enzyme (BACE) (P56817 46-501): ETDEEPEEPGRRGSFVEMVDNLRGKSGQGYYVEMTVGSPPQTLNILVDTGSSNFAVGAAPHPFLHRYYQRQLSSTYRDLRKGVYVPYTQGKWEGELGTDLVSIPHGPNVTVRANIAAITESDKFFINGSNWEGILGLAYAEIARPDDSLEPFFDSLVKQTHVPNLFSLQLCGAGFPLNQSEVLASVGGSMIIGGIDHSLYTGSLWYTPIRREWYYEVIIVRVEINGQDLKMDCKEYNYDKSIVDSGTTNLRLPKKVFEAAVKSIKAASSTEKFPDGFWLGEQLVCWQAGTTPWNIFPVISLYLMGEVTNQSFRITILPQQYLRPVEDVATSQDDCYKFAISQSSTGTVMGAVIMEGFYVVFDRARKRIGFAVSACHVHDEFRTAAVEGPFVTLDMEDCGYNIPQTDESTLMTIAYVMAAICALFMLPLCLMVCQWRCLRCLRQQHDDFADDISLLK

For the molecule `CC(C)(C)Cc1cnc2c(c1)[C@@H](NC[C@@H](O)[C@H](Cc1ccc3c(c1)OCO3)NC(=O)[C@H]1CCO1)CC1(CCC1)O2` [Example 516, (2R)-N-((1S,2R)-1-(1,3-benzodioxol-5-ylmethyl)-3-(((4′S)-6′-(2,2-dimethylpropyl)-3′,4′-dihydrospiro[cyclobutane-1,2′-pyrano[2,3-b]pyridin]-4′-yl)amino)-2-hydroxypropyl)-2-oxetanecarboxamide], the IC50 in data set [1] was determined as 18 nM; in data set [4], 20 nM; on CYP2D6, 3.3 µM; at CYP3A4 (CYP3A), 100 nM. In data set [2], the “RLM” value worked out at 94 µL/min/mg. Besides, the “HLM” value in data set [3] came out at 31 µL/min/mg. In addition, in the data set with Abeta peptide (setting [5]), the inhibition in vivo at 30 mg/kg was 10 to 80%.
On to `CO[C@H](C)C(=O)N[C@@H](Cc1cccc(F)c1)[C@H](O)CN[C@H]1CC2(CCC2)Oc2c1cc(CC(C)C)cc2-n1ccnc1` [Example 521], for which the IC50 in data set [1] worked out at 19 nM; in data set [4], 15 nM; at CYP2D6, 1.9 µM; at CYP3A4 (CYP3A), 100 nM. Further, in data set [2], the “RLM” value is 142 µL/min/mg. In addition, in data set [3], the “HLM” value is 27 µL/min/mg. The inhibition in vivo at 30 mg/kg in the data set on Abeta peptide (setting [5]) was in the range of 10 to 80%.
For the molecule `COC(OC)C(=O)N[C@@H](Cc1ccc2c(c1)OCO2)[C@H](O)CN[C@H]1CC2(CCC2)Oc2ncc(CC(C)(C)C)cc21` [Example 523, N-((1S,2R)-1-(1,3-benzodioxol-5-ylmethyl)-3-(((4′S)-6′-(2,2-dimethylpropyl)-3′,4′-dihydrospiro[cyclobutane-1,2′-pyrano[2,3-b]pyridin]-4′-yl)amino)-2-hydroxypropyl)-2,2-dimethoxyacetamide], the IC50 was 19 nM in data set [1], 33 nM in data set [4], 5.4 µM against CYP2D6 and 100 nM at CYP3A4 (CYP3A). Also, in data set [2], the “RLM” value is 94 µL/min/mg. Moreover, the “HLM” value in data set [3] came to 37 µL/min/mg. Besides, the inhibition in vivo at 30 mg/kg with Abeta peptide (rat brain, read-out: percent reduction of abeta peptide in the brain of the rat) was 5 to 80%; in the data set on Abeta peptide (setting [5]), 10 to 80%.
Take `COCC(=O)N[C@@H](Cc1cc(F)cc(F)c1)[C@H](O)CN[C@H]1CC2(CCC2)Oc2c1cc(CC(C)(C)C)nc2-c1ccncc1` [Example 528]: the IC50 came to 10 nM in data set [1], 23 nM in data set [4], 1.3 µM against CYP2D6 and 100 nM on CYP3A4 (CYP3A). Further, the “RLM” value in data set [2] was 72 µL/min/mg. Besides, the “HLM” value in data set [3] came out at 19 µL/min/mg. The inhibition in vivo at 30 mg/kg in the data set on Abeta peptide (setting [5]) fell in the range of 10 to 80%.
As to `COCC(=O)N[C@@H](Cc1cccc(F)c1)[C@H](O)CN[C@H]1CC2(CCC2)Oc2c(-c3ccncc3)cc(CC(C)(C)C)cc21` [Example 535], the IC50 in data set [1] was 9 nM; in data set [4], 6 nM; on CYP2D6 it was 2.5 µM; against CYP3A4 (CYP3A), 100 nM. The “RLM” value in data set [2] worked out at 79 µL/min/mg. The “HLM” value in data set [3] amounted to 49 µL/min/mg. In the data set with Abeta peptide (setting [5]), the inhibition in vivo at 30 mg/kg lay in the range of 10 to 80%.
Turning to `COCC(=O)N[C@@H](Cc1ccccc1)[C@H](O)CN[C@H]1CC2(CCC2)Oc2c1cc(CC(C)(C)C)nc2-c1ccncc1` [Example 541], the IC50 in data set [1] turned out to be 20 nM; in data set [4] it was 55 nM; against CYP2D6, 2.1 µM; on CYP3A4 (CYP3A), 100 nM. In data set [2], the “RLM” value amounted to 192 µL/min/mg. In data set [3], the “HLM” value amounted to 31 µL/min/mg. Besides, the inhibition in vivo at 30 mg/kg in the data set on Abeta peptide (setting [5]) lay within 10 to 80%.
Turning to `CC(=O)N[C@@H](Cc1ccccc1)[C@H](O)CN[C@H]1CC2(CCC2)Oc2c1cc(CC(C)(C)C)nc2-c1ccncc1` [Example 542], the IC50 in data set [1] is 24 nM; in data set [4], 103 nM; at CYP2D6, not below 27 µM; against CYP3A4 (CYP3A) it was 200 nM. The “RLM” value in data set [2] is 193 µL/min/mg. In addition, in data set [3], the “HLM” value worked out at 36 µL/min/mg. Moreover, the inhibition in vivo at 30 mg/kg with Abeta peptide (setting [5]) was 10 to 80%.
